# Results taken from publication PMC10587869, “Deciphering Structural Determinants Distinguishing Active from Inactive Cell-Penetrating Peptides for Cytosolic mRNA Delivery” (Bioconjugate Chemistry, 2023).
# Positions of bridges follow the written chain, without caps; N, C: chain ends. Non-standard residues stand in square brackets, D forms with d. Residues, ends and D or L forms follow the SMILES beside them. No end group written: not given here. *: point of attachment. Stearoyl = CCCCCCCCCCCCCCCCCC(=O)*; Orn = NCCC[C@H](N)C(=O)O
# Columns and labels:
# [1] = Heparin-mediated polyplex decomplexation assay (QuantiFluor RNA); type: physicochemical; conditions: for stability of polyplexes against heparin-induced decomplexation: N/P 5, TE buffer pH 7.5, 37 °C 90 min, released mRNA by QuantiFluor RNA dye, Figure 7
# Procedure: For testing the stability of mRNA polyplexes, a polyanion decomplexation assay, mediated by the polyanionic heparin (heparin sodium salt from porcine intestinal mucosa, Cat. No. H3149-100 KU, Sigma-Aldrich) was performed. mRNA polyplexes were freshly prepared with uncapped SecNLuc mRNA (RIBOPRO), as described in the section mRNA Nanoparticle Formation. Following polyplex formation, all samples were incubated for at least 30 min at room temperature. Importantly, separate stock solutions of heparin were made to ensure an equal volume across conditions regardless of heparin concentration. For decomplexation, 5 μL of 10× polyplexes were diluted in RNase-free TE-buffer at pH 7.5 (Promega, Cat. No. E260A) supplemented with an equal volume of heparin across conditions to a total volume of 50 μL in a 384-well plate (Greiner Bio-One, Cat. No. 781101). All samples were quickly spun down before incubation at 37 °C for 90 min. The QuantiFluor RNA System (Promega, Cat. No. E3310) was used with a 1:2000 dilution of RNA-binding dye for all tested conditions to detect released mRNA. For quantification, a calibration curve with uncapped SecNLuc mRNA was made, spanning from 0.19 ng mRNA/well to 50 ng mRNA/well. For detection of released mRNA, the dye was excited at 485 nm, and emission was collected at 535 nm using the VICTOR X3Multilabel Plate Reader (PerkinElmer)
# Data analysis was performed using GraphPad Prism (GraphPad Software, version 8.4.2, San Diego, CA, USA). Data are presented as means ± standard deviation (SD) unless stated otherwise. Means were calculated by first averaging the technical replicates, for which outliers were identified using Grubbs’ test, followed by averaging the biological replicates. Before statistical analysis, all data were checked for normal distribution with a Shapiro–Wilk test. Statistical analysis was done using one- or two-way analysis of variance (ANOVA). Multiple comparisons were corrected using Tukey’s test with 95% confidence intervals. For the mRNA standard curve used in heparin decomplexation assays, the coefficient of variation was determined both in the standards and in samples and was ≤20%. The standard curve was fitted using a sigmoidal four-parameter logistic curve. The standard curve was back fitted with ±10% accuracy to verify the correctness of the fit. The signals from samples were blanked with the appropriate solution (TE buffer) before calculating interpolations. p > 0.05 was considered not significant, and p values were reported using the GraphPad Prism style (*p ≤ 0.05, **p ≤ 0.01, ***p ≤ 0.001, and ****p ≤ 0.0001).
# MC3T3 cells [2] = test: Resazurin assay of metabolic activity after mRNA transfection; type: cell-based, murine; parameters: concentration or dose not given beside the values; conditions: normalized to untreated
# Procedure: (§1) One day before mRNA transfections, 10 000 MC3T3 cells in 100 μL were seeded in 96-well plates (Greiner Bio-One Cat. No. 655180) or 20 000 cells in 200 μL in μ-slide eight-well chambers (Ibidi, Gräfelfing, Germany). These seeding densities ensured confluency between ∼70 and 90% on the day of transfection. mRNA transfections were performed by removing the complete medium from the wells and replacing it with mRNA nanoparticles diluted 10 times in complete medium. Cells were exposed to mRNA nanoparticles for 2 h at 37 °C, 5% CO2, in a humidified incubator. For some experiments, cells were stained with 200 μL of 1 μM CellTrace yellow (Thermo Fisher Scientific, Cat. No. C34567) directly after the nanoparticle incubation, according to the manufacturer’s instructions. Regardless of the tested N/P ratio or type of nanoparticle, mRNA inputs were equalized across conditions, resulting in 107 ng/well for luciferase assays in 96-well plate formats and 214 ng/well for confocal microscopy experiments. […] For untreated controls, complete cell culture medium was added and refreshed as often as in the experimental conditions.
# (§2) The resazurin-based assay was performed essentially as described previously.[61],[62] In brief, the effect of different peptide-mRNA complexes on the metabolic activity of cells was measured 24 h post-transfection. Resazurin sodium salt (Sigma-Aldrich, Cat No. R7017) was dissolved in PBS and diluted 100 times to a final concentration of 100 μg/mL in complete medium. After 2 h of incubation with cells at 37 °C, fluorescence was measured using the VICTOR X3Multilabel Plate Reader (PerkinElmer, Waltham, MA, USA). After briefly shaking the plate, resazurin was excited at 485 nm, and emission was collected from 570 to 620 nm. All samples were blanked by the average signal of cell-free wells. Blanked data were normalized to untreated conditions per cell type.
# HeLa cells = test: as above; type: cell-based, human; conditions: normalized to untreated
# Procedure: as §1, §2
# MC3T3 cells [3] = test: Cellular uptake of Cy5-eGFP mRNA polyplexes, live-cell confocal microscopy; type: cell-based, murine; conditions: for effect of oligomerization on uptake: Cy5-labeled mRNA, polymerized vs monomeric, Figure 5, Figure S5; for ratio of Poly hLF-x vs Mono-hLF-x, Corrected Total Cellular Fluorescence (Cy5): Cy5-eGFP mRNA polyplexes, 2 h post-transfection, n = 5 fields of view per condition
# Procedure: Peptide-mRNA polyplexes were formulated as previously described.[40],[41] In short, two separate stock solutions of mRNA and peptide were prepared in MQ and simultaneously dispensed with electronically dispensing pipettes (E4 Electronic Pipette, LTS E4-100XLS+, Mettler-Toledo Rainin, LLC, Oakland, CA, USA) at a flow rate of 11 mL min^–1. All polyplexes were formed at a concentration of at least 10-fold the final intended concentration for transfections.
# as §1
# Before microscopy, complete medium containing phenol red was replaced with an equal volume of phenol red-free and HEPES-formulated Opti-MEM (Gibco). The uptake of Cy5-eGFP mRNA-formulated nanoparticles was assessed 2 h post-transfection, and eGFP expression was assessed 24 h post-transfection. Live-cell imaging was performed using a Leica TCS SP8 SMD (Leica Microsystems, Mannheim, Germany) with an HC PL APO CS2 63×/1.20 water objective and a temperature-controlled stage at 36.5 °C. eGFP was excited at 488 nm (emission: 500–550 nm). CellTrace yellow was excited at 555 nm (emission: 570–620 nm), and Cy5 was excited at 633 nm (emission: 650–690 nm). All laser lines were generated by a white-light laser, and emissions were detected with hybrid detectors. All channels were sequentially acquired to avoid crosstalk at a bit depth of 12. Except for the LMM eGFP conditions (reduced gain), equal acquisition settings (pixel size, pinhole, laser power, and gain) per fluorophore were used within the experiments.
# Quantification of the Cy5 fluorescence was performed as previously described.[59],[60] In brief, five separate images (unless stated otherwise) containing approximately 10 cells per image were analyzed using ImageJ (version 1.53f51). A square mask of 184.52 μm^2 was used to quantify the raw integrated density (sum of all pixels in a region of interest). Importantly, cell confluencies ranged from ∼80–95%, ensuring minimal impact of cell density on total fluorescence values. The brightness and contrast of the images were adjusted to find a cell-free region to determine background fluorescence. Then, a circle was drawn to measure the background fluorescence. To obtain the corrected total cellular fluorescence (CTCF), the area (in pixels) was multiplied by the mean gray value of the background and subsequently subtracted from the raw integrated density.
# [4] = MC3T3, N/P 5, resazurin 24 h post-transfection
# [5] = N/P 5, resazurin 24 h post-transfection
# [6] = MC3T3, N/P 3, resazurin 24 h post-transfection
molecule,measurement,setting,value
"CCCCCCCCCCCCCCCCCC(=O)N[C@@H](C)C(=O)NCC(=O)N[C@@H](Cc1ccc(O)cc1)C(=O)N[C@@H](CC(C)C)C(=O)N[C@@H](CC(C)C)C(=O)NCC(=O)N[C@@H](CCCCN)C(=O)N[C@@H](CC(C)C)C(=O)N[C@@H](CC(C)C)C(=O)N[C@@H](CCCN)C(=O)N[C@@H](CCCN)C(=O)N[C@@H](CC(C)C)C(=O)N[C@@H](C)C(=O)N[C@@H](C)C(=O)N[C@@H](C)C(=O)N[C@@H](C)C(=O)N[C@@H](CC(C)C)C(=O)N[C@@H](CCCN)C(=O)N[C@@H](CCCN)C(=O)N[C@@H](CC(C)C)C(=O)N[C@@H](CC(C)C)C(N)=O [PF14, reference compound] (Stearoyl-AGYLLGKLL[Orn][Orn]LAAAAL[Orn][Orn]LL-NH2)",stability against heparin decomplexation,"[1]; N/P 7, low heparin dose, Figure S8",least stable
same,relative metabolic activity,MC3T3 cells [2]; [4],64%
same,relative metabolic activity,"HeLa cells; N/P 3, resazurin 24 h post-transfection",72%
same,relative metabolic activity,HeLa cells; [5],13%
CC(C)C[C@@H]1NC(=O)[C@H](C)NC(=O)[C@H](CCCN)NC(=O)[C@H](C(C)C)NC(=O)[C@H](CCCN)NC(=O)[C@H](CCCN)NC(=O)[C@H](CC(C)C)NC(=O)[C@H](CC(N)=O)NC(=O)[C@H](CCCN)NC(=O)[C@H](CC(C)C)NC(=O)[C@H](Cc2c[nH]c3ccccc23)NC(=O)[C@H](CCC(N)=O)NC(=O)[C@H](Cc2ccccc2)NC(=O)[C@@H](NC(=O)[C@@H](N)CCCN)CSSC[C@@H](C(=O)N[C@@H](CC(C)C)C(=O)N[C@@H](CCCN)C(=O)N[C@@H](CCCN)C(N)=O)NC(=O)[C@H](CO)NC(=O)[C@H](C(C)C)NC(=O)[C@H](CC(C)C)NC1=O [Mono-hLF-v3] (H-[Orn]CFQWL[Orn]NL[Orn][Orn]V[Orn]ALLVSCL[Orn][Orn]-NH2; disulfide 2-19),relative metabolic activity,MC3T3 cells [2]; [6],125%
"OCFQWLONLOOVOALLVSCLOO (disulfide) [poly hLF-v3, polymeric hLF-v3]",relative metabolic activity,MC3T3 cells [2]; [4],~125%
same,uptake of Cy5-labeled mRNA polyplexes of amphipathic hLF variants,"MC3T3 cells [3]; 2 h incubation, live-cell confocal microscopy, serum present, Figure 5, four independent experiments",comparable to the one of PF14
"KCFQWLKNLKKVKALLVSCLKK [hLF-v2, lysine-substituted amphipathic hLF variant]",effect of oligomerization on uptake,MC3T3 cells [3]; 2 h incubation,pronounced increase in uptake
"OCFQWQONMOOVOGPPVSCIOO [hLF-Orn, hLF analog with positively charged residues replaced by ornithines]","ratio of Poly hLF-x vs Mono-hLF-x, Corrected Total Cellular Fluorescence (Cy5)",MC3T3 cells [3],1.19 x
"OCFQWQONMOOVOGPPVSCIOO (disulfide) [poly-hLF-Orn, hLF-Orn oligomerized through intermolecular disulfide bonds]",difference in heparin decomplexation,"[1]; N/P 1 and 3, low or high heparin amounts, Figure S8",no difference
CC[C@H](C)[C@H](NC(=O)[C@@H]1CSSC[C@H](NC(=O)[C@H](CCCCN)NC(C)=O)C(=O)N[C@@H](Cc2ccccc2)C(=O)N[C@@H](CCC(N)=O)C(=O)N[C@@H](Cc2c[nH]c3ccccc23)C(=O)N[C@@H](CCC(N)=O)C(=O)N[C@@H](CCCNC(=N)N)C(=O)N[C@@H](CC(N)=O)C(=O)N[C@@H](CCSC)C(=O)N[C@@H](CCCNC(=N)N)C(=O)N[C@@H](CCCCN)C(=O)N[C@@H](C(C)C)C(=O)N[C@@H](CCCNC(=N)N)C(=O)NCC(=O)N2CCC[C@H]2C(=O)N2CCC[C@H]2C(=O)N[C@@H](C(C)C)C(=O)N[C@@H](CO)C(=O)N1)C(=O)N[C@@H](CCCCN)C(=O)N[C@@H](CCCNC(=N)N)C(N)=O [Mono-hLF-WT] (Ac-KCFQWQRNMRKVRGPPVSCIKR-NH2; disulfide 2-19),stability of polyplexes against heparin-induced decomplexation,[1],"significantly lower stability of these polyplexes compared to PF14, except for the highest heparin dose"
same,relative metabolic activity,MC3T3 cells [2]; [6],125%
same,relative metabolic activity,HeLa cells; [5],83%
"OCFQWLONLOOVOALLVSCLOO [hLF-v3, ornithine-substituted amphipathic hLF variant]",effect of oligomerization on uptake,MC3T3 cells [3]; 2 h incubation,pronounced increase in uptake
CC(C)C[C@@H]1NC(=O)[C@H](C)NC(=O)[C@H](CCCCN)NC(=O)[C@H](C(C)C)NC(=O)[C@H](CCCCN)NC(=O)[C@H](CCCCN)NC(=O)[C@H](CC(C)C)NC(=O)[C@H](CC(N)=O)NC(=O)[C@H](CCCCN)NC(=O)[C@H](CC(C)C)NC(=O)[C@H](Cc2c[nH]c3ccccc23)NC(=O)[C@H](CCC(N)=O)NC(=O)[C@H](Cc2ccccc2)NC(=O)[C@@H](NC(=O)[C@@H](N)CCCCN)CSSC[C@@H](C(=O)N[C@@H](CC(C)C)C(=O)N[C@@H](CCCCN)C(=O)N[C@@H](CCCCN)C(N)=O)NC(=O)[C@H](CO)NC(=O)[C@H](C(C)C)NC(=O)[C@H](CC(C)C)NC1=O [mono-hLF-v2] (H-KCFQWLKNLKKVKALLVSCLKK-NH2; disulfide 2-19),relative metabolic activity,MC3T3 cells [2]; [4],~125%
"KCFQWQRNMRKVRGPPVSCIKR (disulfide 2-19 (inferred)) [Poly hLF-WT, hLF-WT oligomerized through intermolecular disulfide bonds]",stability of polyplexes against heparin-induced decomplexation,[1],significantly lower release of mRNA
"OCFQWQHNMOHVHGPPVSCIOH [hLF-His&Orn, hLF analog with positively charged residues replaced by histidines and ornithines]","ratio of Poly hLF-x vs Mono-hLF-x, Corrected Total Cellular Fluorescence (Cy5)",MC3T3 cells [3],2.42 x
